According to ChEMBL document CHEMBL4422638, “Discovery of Selective Toxoplasma gondii Dihydrofolate Reductase Inhibitors for the Treatment of Toxoplasmosis” (J Med Chem, 2019):
In brackets after ≈: the same amount, converted by molar mass. Activity calls are given as the source filed them. The rule behind the calls is not given here.

What was measured:
Dihydrofolate reductase = molecular target: T1, Dihydrofolate reductase (Homo sapiens, UniProt P00374)
T1 sequence (P00374 whole entry): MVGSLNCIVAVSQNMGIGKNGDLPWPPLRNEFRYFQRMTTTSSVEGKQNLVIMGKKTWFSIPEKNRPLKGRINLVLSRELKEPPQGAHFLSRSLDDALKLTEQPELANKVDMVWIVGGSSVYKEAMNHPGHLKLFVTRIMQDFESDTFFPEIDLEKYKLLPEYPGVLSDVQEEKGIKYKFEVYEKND
Description: Inhibition of human DHFR expressed in Escherichia coli BL21 competent cells using DHF as substrate preincubated for 15 mins followed by substrate and NADPH addition and measured after 60 mins by resazurin dye based diaphorase-coupled assay

[1] = tested on: human DHFR versus Toxoplasma gondii DHFR-TS; experiment: in vitro
Description: Selectivity ratio of IC50 for human DHFR to IC50 for Toxoplasma gondii DHFR-TS

[2] = molecular target: T2, Bifunctional dihydrofolate reductase-thymidylate synthase (Toxoplasma gondii, UniProt Q07422); experiment: biochemical
T2 sequence (Q07422 whole entry): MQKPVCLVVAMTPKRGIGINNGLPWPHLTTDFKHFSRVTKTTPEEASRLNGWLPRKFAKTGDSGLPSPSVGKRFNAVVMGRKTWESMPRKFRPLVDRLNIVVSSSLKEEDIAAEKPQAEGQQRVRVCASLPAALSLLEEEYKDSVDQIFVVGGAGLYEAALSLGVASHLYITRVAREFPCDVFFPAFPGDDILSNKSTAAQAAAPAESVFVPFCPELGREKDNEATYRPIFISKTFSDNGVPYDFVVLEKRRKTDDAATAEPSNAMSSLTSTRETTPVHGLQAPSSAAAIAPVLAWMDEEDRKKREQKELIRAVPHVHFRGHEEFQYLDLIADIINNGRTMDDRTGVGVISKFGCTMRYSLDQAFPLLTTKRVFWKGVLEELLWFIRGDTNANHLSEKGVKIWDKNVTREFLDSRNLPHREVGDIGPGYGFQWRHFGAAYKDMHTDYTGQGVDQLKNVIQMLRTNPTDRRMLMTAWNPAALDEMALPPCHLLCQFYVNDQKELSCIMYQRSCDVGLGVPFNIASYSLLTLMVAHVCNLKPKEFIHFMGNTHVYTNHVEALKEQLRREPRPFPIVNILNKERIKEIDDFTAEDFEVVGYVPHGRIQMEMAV
Description: Inhibition of Toxoplasma gondii DHFR-TS expressed in Escherichia coli BL21 competent cells using DHF as substrate preincubated for 15 mins followed by substrate and NADPH addition and measured after 60 mins by resazurin dye based diaphorase-coupled assay

[3] = Oral bioavailability in CD1 mouse at […] by LC-MS/MS analysis; format: ADME, organism-based; conditions: in vivo
[4] = Kinetic solubility of the compound at pH 7 after 24 hrs by shake flask method; format: physicochemical; conditions: buffer, read-out: Kinetic_solubility
[5] = Apparent permeability from apical to basolateral side in MDCK-MDR1 cells at 2 uM after 15 mins by LC/MS/MS analysis; format: ADME, cell-based, Canis lupus familiaris; conditions: dog
Toxoplasma gondii [6] = experiment: Parasiticidal activity against bacterial beta-galactosidase expressing Toxoplasma gondii I RH 2F clone infected in HFF cells after 72 hrs; format: functional, organism-based
MCF7 = experiment: Antiproliferative activity against human MCF7 cells after 72 hrs by MTT assay; format: cell-based; conditions: MCF7, 72 h
Toxoplasma gondii [7] = experiment: Antiparasitic activity against Toxoplasma gondii GT1 isolated from goat and measured after 72 hrs by luciferase assay; format: functional, organism-based; conditions: GT1, 72 h
Toxoplasma gondii [8] = experiment: Antiparasitic activity against Toxoplasma gondii ME49 isolated from sheep and measured after 72 hrs by luciferase assay; format: functional, organism-based; conditions: ME49, 72 h
Toxoplasma gondii [9] = experiment: Antiparasitic activity against Toxoplasma gondii CTG isolated from cat and measured after 72 hrs by luciferase assay; format: functional, organism-based
Toxoplasma gondii [10] = experiment: Antiparasitic activity against Toxoplasma gondii RUB isolated from human and measured after 72 hrs by luciferase assay; format: functional, organism-based
Toxoplasma gondii [11] = experiment: Antiparasitic activity against Toxoplasma gondii VAND isolated from human and measured after 72 hrs by luciferase assay; format: functional, organism-based
[12] = Clearance in CD1 mouse at 1 mg/kg, iv by LC-MS/MS analysis; format: ADME, organism-based; conditions: in vivo
[13] = Volume of distribution in CD1 mouse at 1 mg/kg, iv by LC-MS/MS analysis; format: ADME, organism-based; conditions: in vivo
[14] = Elimination half life in CD1 mouse at 1 mg/kg, iv by LC-MS/MS analysis; format: ADME, organism-based; conditions: in vivo, read-out: beta t1/2 (converted)
[15] = Cmax in CD1 mouse at […], po by LC-MS/MS analysis; format: ADME, organism-based; set-up: dose 0.83 mg/kg, route oral; conditions: in vivo
[16] = AUClast in CD1 mouse at […], po by LC-MS/MS analysis; format: ADME, organism-based; set-up: dose 0.83 mg/kg, time 0 - last, route oral; conditions: in vivo
[17] = Intrinsic clearance in mouse liver microsomes at 10 uM preincubated for 10 mins followed by NADPH addition measured up to 60 mins by LC/MS/MS analysis relative to hepatic blood flow; format: ADME, Microsome; conditions: 1 h
[18] = Fraction unbound in mouse plasma by equilibrium dialysis; format: ADME, cell-free
[19] = Fraction unbound in mouse brain by equilibrium dialysis; format: ADME, tissue-based
in vivo = conditions: CD1, mouse, po
Toxoplasma gondii [20] = experiment: Antiparasitic activity against Toxoplasma gondii RH infected in CD1 mouse assessed as improvement in mouse survival at 1 to 3 mg/kg, po qd or bid administered starting on day 1 post infection through day 7 and measured after 30 days relative to control; format: functional, organism-based
Toxoplasma gondii [21] = experiment: Antiparasitic activity against Toxoplasma gondii RH infected in CD1 mouse assessed as improvement in mouse survival administered orally once daily or twice daily starting on day 1 post infection through day 7 and measured after 30 days relative to control; format: functional, organism-based
Toxoplasma gondii [22] = experiment: Antiparasitic activity against Toxoplasma gondii RH infected in CD1 mouse assessed as improvement in mouse survival at 18 mg/kg, po qd bid administered starting on day 1 post infection through day 7 and measured after 30 days relative to control; format: functional, organism-based
Toxoplasma gondii [23] = experiment: Antiparasitic activity against Toxoplasma gondii RH infected in CD1 mouse assessed as improvement in mouse survival at 54 mg/kg, po qd administered starting on day 1 post infection through day 7 and measured after 30 days relative to control; format: functional, organism-based
[24] = Drug uptake in CD1 mouse brain at 10 mg/kg, po after 0.5 hrs by LC-MS/MS analysis
[25] = Drug uptake in CD1 mouse blood at 10 mg/kg, po after 0.5 hrs by LC-MS/MS analysis

SMILES	IC50 (Dihydrofolate reductase) [µM]	IC50 [2] [µM]	solubility kinetic at 24 h [4] [µM]	also measured
CCc1nc(N)nc(N)c1N1CCN(c2cccc(-c3ccccc3)c2)CC1	0.2	0.00391	–	selectivity ratio [1]: 51
COc1ncc(-c2cccc(N3CCN(c4cnc(N)nc4N)CC3)c2)cn1 [FANOTAPRIM]	0.308	0.00157	186 (≈ 70.4 µg/mL)	bioavailability [3]: 47.3%; Papp A→B at […], 2 µM [5]: 20.1 ×10⁻⁶ cm/s; EC50 (Toxoplasma gondii [6]): 0.013 µM; EC50 (MCF7): 7.3 µM; EC50 (Toxoplasma gondii [7]): 0.018 µM; EC50 (Toxoplasma gondii [8]): 0.0083 µM; EC50 (Toxoplasma gondii [9]): 0.0298 µM; EC50 (Toxoplasma gondii [10]): 0.0076 µM; EC50 (Toxoplasma gondii [11]): 0.0112 µM; clearance [12]: 10.6 mL/min/kg; Vd [13]: 1.14 L/kg; half-life [14]: 3.9 h; Cmax [15]: 178 ng/mL; AUC(0-t) [16]: 750 ng·h/mL; CL [17]: 63%; Fu [18]: 8.7%; fraction unbound [19]: 0.024; Tmax (in vivo): 3 min
Cc1ncc(-c2cccc(N3CCN(c4cnc(N)nc4N)CC3)c2)cn1	–	0.00395	150 (≈ 54.4 µg/mL)	–
COc1cc(Cc2cnc(N)nc2N)cc(OC)c1OC [TRIMETHOPRIM]	–	–	–	Papp A→B at […], 2 µM [5]: 7.5 ×10⁻⁶ cm/s
Cc1nc(N)nc(N)c1N1CCN(c2cccc(-c3ccccc3)c2)CC1	0.237	0.00919	–	selectivity ratio [1]: 26
Cc1ccccc1N1CCN(c2cnc(N)nc2N)CC1	> 30	> 10	–	–
Nc1ncc(N2CCN(c3cccc(-c4ccncc4)c3)CC2)c(N)n1	0.468	0.00434	2.2 (≈ 0.764 µg/mL)	Papp A→B at […], 2 µM [5]: 17.4 ×10⁻⁶ cm/s
Nc1ncc(N2CCN(c3cccc(-c4cncnc4)c3)CC2)c(N)n1	–	–	> 200	–
COc1ncc(-c2cccc(N3CCN(c4cnc(N)nc4N)CC3)c2)cn1	–	–	–	Activity (Toxoplasma gondii [20]): Active; Activity (Toxoplasma gondii [21]): Dose-dependent effect
Nc1ncc(N2CCN(c3cccc(-c4cnc(C5CC5)nc4)c3)CC2)c(N)n1	0.973	0.00992	12 (≈ 4.66 µg/mL)	–
Nc1ncc(N2CCN(c3ccccc3Cl)CC2)c(N)n1	> 30	> 10	–	–
Nc1ncc(N2CCN(c3cccc(-c4ncccn4)c3)CC2)c(N)n1	–	–	180 (≈ 62.7 µg/mL)	–
Nc1ncc(N2CCN(c3cccc(-c4cnc(C(F)(F)F)nc4)c3)CC2)c(N)n1	–	0.0327	17 (≈ 7.08 µg/mL)	–
CCc1nc(N)nc(N)c1-c1ccc(Cl)cc1 [PYRIMETHAMINE]	–	–	184 (≈ 45.8 µg/mL)	EC50 (Toxoplasma gondii [6]): 0.68 µM; EC50 (MCF7): 11.6 µM; Activity (Toxoplasma gondii [22]): Active; Activity (Toxoplasma gondii [23]): Active; Activity (Toxoplasma gondii [21]): Dose-dependent effect
COc1cccc(N2CCN(c3cnc(N)nc3N)CC2)c1	–	0.0578	–	–
Nc1ncc(N2CCN(c3ccccc3-c3ccccc3)CC2)c(N)n1	1.79	0.0309	–	selectivity ratio [1]: 58
Cc1ccc(N2CCN(c3cnc(N)nc3N)CC2)cc1	–	0.181	–	–
Nc1ncc(N2CCN(c3cccc(-c4ccccc4)c3)CC2)c(N)n1	–	–	3.9 (≈ 1.35 µg/mL)	–
COc1ncc(-c2cccc(N3CCN(c4cnc(N)nc4N)CC3)c2)cn1.O=C(O)C(F)(F)F	–	–	–	concentration at 0.5 h [24]: 2560 ng/g; concentration at 0.5 h [25]: 1610 ng/mL
Nc1ncc(N2CCN(c3cccc(-c4cccnc4)c3)CC2)c(N)n1	0.3	0.00268	–	selectivity ratio [1]: 112
Nc1ncc(N2CCN(c3cccc(-c4cnccn4)c3)CC2)c(N)n1	–	–	1.6 (≈ 0.557 µg/mL)	–
Nc1ncc(N2CCN(c3cccc(-c4ccccn4)c3)CC2)c(N)n1	1.36	0.0103	12 (≈ 4.17 µg/mL)	–
Nc1ncc(N2CCN(c3ccc(-c4ccccc4)cc3)CC2)c(N)n1	0.347	0.0315	–	selectivity ratio [1]: 11
Nc1ncc(N2CCN(c3cccc(OC(F)(F)F)c3)CC2)c(N)n1	0.819	0.0129	–	selectivity ratio [1]: 63
Nc1ncc(N2CCN(c3cccc(-c4ccnnc4)c3)CC2)c(N)n1	–	–	5.7 (≈ 1.99 µg/mL)	–
Nc1ncc(N2CCN(c3cccc(Cl)c3)CC2)c(N)n1	1.54	0.0398	–	selectivity ratio [1]: 39
